# Source: PMC8795197, “Safety and activity of WX-0593 (Iruplinalkib) in patients with ALK- or ROS1-rearranged advanced non-small cell lung cancer: a phase 1 dose-escalation and dose-expansion trial” (Signal Transduction and Targeted Therapy, 2022)
# Where two headings read alike, the source gives them in different places.
# What was measured:
# [1] = test system: ALK+ human lung cancer LU-01-0319 xenograft; experiment: PDX model, anti-tumor activity; type: in vivo
# Experimental: (§1) The anti-tumor activity of WX-0593 was evaluated in two PDX models. […] WX-0593 was well-tolerated at all concentrations.
# [2] = test system: ALK+ human lung cancer LU-01-0015 xenograft; experiment: PDX model, anti-tumor activity; type: in vivo
# Experimental: as §1
# [3] = test system: remaining 17 GPCR targets; experiment: GPCR antagonist screening assay; type: cell-based; details: highest dose detected
# [4] = Repeated-dose toxicity study, 28 days oral gavage
# Experimental: Repeated administration for 28 days was carried out. 3, 10, and 30 mg/kg were administered to rats. 1, 3, and 10 mg/kg were administered to cynomolgus monkeys.
# [5] = Single-dose toxicity study (acute toxicity)
# M2 = M2 (Homo sapiens, UniProt P08172); experiment: GPCR antagonist screening assay; type: cell-based
# in vivo [6] = details: cynomolgus monkey, po; for AUC(0-t) / Cmax: 50 mg/kg
# [7] = Phase 1 dose-escalation phase: plasma pharmacokinetics; type: in vivo, human; details: for Tmax / AUC(0-t) / AUC(0-inf) / Cmax / MRT inf / half-life: human, plasma, oral; for Tmax / AUC(0-t) / AUC(0-inf) / Cmax / MRT inf / half-life / Cssmax / Cssmin / Racc_AUC / Racc_Cmax: mean (SD); for MRT inf: read-out: MRT0-∞; for half-life: read-out: T1/2z (converted)
# Experimental: Three patients were assigned to each dose level. In the dosing cohort of 30 mg, treatment included a single WX-0593 dose, followed by 7-day PK evaluation period, and subsequent daily oral dosing for continuous 21 days. In other dosing cohorts, WX-0593 was administered orally as a single dose in the 4-day PK run-in period, followed by dosing once per day in continuous 21-day cycles. The DLT observation period was the first cycle of WX-0593 treatment (the single-dose period and 21 days of multiple-dose period).
# In the dose-escalation phase, blood samples were collected at protocol-specified time points after single and multiple dose administration of WX-0593 in all dosing cohorts for assessment of PK parameters.
# Safety analysis was performed in the SS, which was comprised of all patients treated with one dose of WX-0593 and with safety data recorded. Efficacy analysis was performed in the FAS, which was defined as all patients treated with at least one dose of WX-0593. The PK analysis set included all patients treated with at least one dose of WX-0593 and with at least one evaluable PK sample.
# Descriptive statistics were carried out to summarize patients’ baseline characteristics and safety. […] All time-to-event data (PFS, TTP, DOR, and OS) and their corresponding 95% CIs were estimated by Kaplan–Meier methods. PK parameter analyses were done with Phoenix WinNonlin version 8.0. All other statistical analyses were conducted using SAS version 9.4.
# Blood sampling time points for single dose: Blood samples are collected before dosing and 0.5 h, 1 h, 2 h, 3 h, 4 h, 5 h, 6 h, 8 h, 12 h, 24 h, 32 h, 48 h, and 72 h after dosing (after adjustment according to the pharmacokinetic parameters of patients in the first dose arm).
# Blood sampling time points for repeated dosing: Repeated dosing starts 4 days after single dose administration. Blood samples are collected before repeated dosing on Days 7, 14, and 21 before repeated dosing, and within 24h after dosing (0.5 h, 1 h, 2 h, 3 h, 4 h, 5 h, 6 h, 8 h, 12 h, 24 h) for measurement of blood pharmacokinetic parameters.
# The plasma concentration of WX-0593 will be determined using LC-MS.
# in vivo [8] = details: male
# [9] = multiple dosing 120 mg (n = 11)
# [10] = multiple dosing 180 mg (n = 13)
# [11] = multiple dosing 240 mg (n = 12)
# Sequence of M2 (P08172 whole entry): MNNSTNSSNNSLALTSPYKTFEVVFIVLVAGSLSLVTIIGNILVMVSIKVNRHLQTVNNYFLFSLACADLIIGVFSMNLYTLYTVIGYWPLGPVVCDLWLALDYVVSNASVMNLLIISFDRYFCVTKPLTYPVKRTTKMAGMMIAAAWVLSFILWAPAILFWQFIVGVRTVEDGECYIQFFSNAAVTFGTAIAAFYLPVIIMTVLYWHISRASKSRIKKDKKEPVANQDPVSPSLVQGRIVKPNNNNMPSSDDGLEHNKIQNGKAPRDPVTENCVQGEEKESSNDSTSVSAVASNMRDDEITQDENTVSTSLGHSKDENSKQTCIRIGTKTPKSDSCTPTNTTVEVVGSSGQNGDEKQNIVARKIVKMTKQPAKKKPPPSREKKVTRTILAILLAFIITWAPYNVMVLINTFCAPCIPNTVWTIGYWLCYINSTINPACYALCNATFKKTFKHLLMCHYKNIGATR
structure (smiles),measurement,setting,value
COc1cc(N2CCC3(CCN(C)CC3)CC2)ccc1Nc1ncc(Cl)c(Nc2ccccc2P(C)(C)=O)n1 [WX-0593],anti-tumor activity,"[1]; 1, 2.5 and 5 mg/kg",good anti-tumor activity
same,mean body weight,[1]; all treatment arms,no significant decrease in mean weight
same,anti-tumor activity,"[2]; 15 mg/kg, 10 mg/kg (D0–D7)/2.5 mg/kg (D8–D27), 5 mg/kg",significant anti-tumor activity
same,body weight,[2]; all treatment arms,no significant decrease in weight
same,IC50,[3],> 111 µM
same,human equivalent dose (HED),"[4]; 1/5 of NOAEL, 60 kg/person",12 mg/person
same,human equivalent dose,"[4]; 1/6 of HNSTD, 60 kg/person",32 mg/person
same,highest non-severely toxic dose (HNSTD),[4]; 28 days oral gavage,greater than 10 mg/kg/day
same,HNSTD as multiple of the effective dose in nude mice,"[4]; cynomolgus monkey, in vivo",16 times
same,NOAEL as multiple of the effective dose in nude mice,"[4]; cynomolgus monkey, in vivo",4.8 times
same,MTD as multiple of the effective dose,[5]; female animals,10 times
same,MTD as multiple of the effective dose,[5]; males,40 times
same,IC50,M2,> 10 µM
same,MTD,in vivo [6],50 mg/kg
same,AUC(0-t),in vivo [6]; female,50600 ng·h/mL
same,Cmax,in vivo [6]; female,4010 ng/mL
same,AUC(0-t),in vivo [6]; male,35000 ng·h/mL
same,Cmax,in vivo [6]; male,2180 ng/mL
same,"free Cavg,ss","[7]; 180 mg, once daily",127 nM
same,Tmax,"[7]; 30 mg, multiple dosing 30 mg (n = 3)",4.33 h
same,AUC(0-t),"[7]; 30 mg, multiple dosing 30 mg (n = 3), read-out: AUC0–24",1150 ng·h/mL
same,Tmax,"[7]; 30 mg, single dose 30 mg (n = 3)",2.32 h
same,AUC(0-t),"[7]; 30 mg, single dose 30 mg (n = 3), read-out: AUC0-t",1310 ng·h/mL
same,Tmax,"[7]; 60 mg, multiple dosing 60 mg (n = 3)",4.01 h
same,AUC(0-t),"[7]; 60 mg, multiple dosing 60 mg (n = 3), read-out: AUC0–24",4960 ng·h/mL
same,Tmax,"[7]; 60 mg, single dose 60 mg (n = 3)",1.33 h
same,AUC(0-t),"[7]; 60 mg, single dose 60 mg (n = 3), read-out: AUC0-t",3650 ng·h/mL
same,Tmax,"[7]; 90 mg, multiple dosing 90 mg (n = 8)",2.87 h
same,AUC(0-t),"[7]; 90 mg, multiple dosing 90 mg (n = 8), read-out: AUC0–24",4390 ng·h/mL
same,Tmax,"[7]; 90 mg, single dose 90 mg (n = 8)",1.69 h
same,AUC(0-t),"[7]; 90 mg, single dose 90 mg (n = 8), read-out: AUC0-t",5430 ng·h/mL
same,Tmax,"[7]; 120 mg, multiple dosing 120 mg (n = 11)",2.79 h
same,AUC(0-t),"[7]; 120 mg, multiple dosing 120 mg (n = 11), read-out: AUC0–24",6120 ng·h/mL
same,Tmax,"[7]; 120 mg, single dose 120 mg (n = 11)",1.81 h
same,AUC(0-t),"[7]; 120 mg, single dose 120 mg (n = 11), read-out: AUC0-t",7780 ng·h/mL
same,Tmax,"[7]; 180 mg, multiple dosing 180 mg (n = 13)",2.79 h
same,AUC(0-t),"[7]; 180 mg, multiple dosing 180 mg (n = 13), read-out: AUC0–24",7210 ng·h/mL
same,Tmax,"[7]; 180 mg, single dose 180 mg (n = 12)",2.29 h
same,AUC(0-t),"[7]; 180 mg, single dose 180 mg (n = 12), read-out: AUC0-t",6620 ng·h/mL
same,Tmax,"[7]; 240 mg, multiple dosing 240 mg (n = 12)",3.27 h
same,AUC(0-t),"[7]; 240 mg, multiple dosing 240 mg (n = 12), read-out: AUC0–24",12700 ng·h/mL
same,Tmax,"[7]; 240 mg, single dose 240 mg (n = 10)",2.5 h
same,AUC(0-t),"[7]; 240 mg, single dose 240 mg (n = 10), read-out: AUC0-t",15500 ng·h/mL
same,Tmax,"[7]; 300 mg, multiple dosing 300 mg (n = 2)",1.24 h
same,AUC(0-t),"[7]; 300 mg, multiple dosing 300 mg (n = 2), read-out: AUC0–24",23400 ng·h/mL
same,Tmax,"[7]; 300 mg, single dose 300 mg (n = 3)",2.71 h
same,AUC(0-t),"[7]; 300 mg, single dose 300 mg (n = 3), read-out: AUC0-t",14900 ng·h/mL
same,AUC(0-inf),[7]; single dose 30 mg (n = 3),1710 ng·h/mL
same,Cmax,[7]; single dose 30 mg (n = 3),105 ng/mL
same,MRT inf,[7]; single dose 30 mg (n = 3),20.7 h
same,half-life,[7]; single dose 30 mg (n = 3),15.5 h
same,AUC(0-inf),[7]; single dose 60 mg (n = 3),4060 ng·h/mL
same,Cmax,[7]; single dose 60 mg (n = 3),305 ng/mL
same,MRT inf,[7]; single dose 60 mg (n = 3),28.3 h
same,half-life,[7]; single dose 60 mg (n = 3),25.7 h
same,AUC(0-inf),[7]; single dose 90 mg (n = 8),6210 ng·h/mL
same,Cmax,[7]; single dose 90 mg (n = 8),474 ng/mL
same,MRT inf,[7]; single dose 90 mg (n = 8),24 h
same,half-life,[7]; single dose 90 mg (n = 8),21.9 h
same,AUC(0-inf),[7]; single dose 120 mg (n = 11),8120 ng·h/mL
same,Cmax,[7]; single dose 120 mg (n = 11),571 ng/mL
same,MRT inf,[7]; single dose 120 mg (n = 11),25.6 h
same,half-life,[7]; single dose 120 mg (n = 11),22.2 h
same,AUC(0-inf),[7]; single dose 180 mg (n = 12),7320 ng·h/mL
same,Cmax,[7]; single dose 180 mg (n = 12),401 ng/mL
same,MRT inf,[7]; single dose 180 mg (n = 12),27.9 h
same,half-life,[7]; single dose 180 mg (n = 12),23.9 h
same,AUC(0-inf),[7]; single dose 240 mg (n = 10),16900 ng·h/mL
same,Cmax,[7]; single dose 240 mg (n = 10),1000 ng/mL
same,MRT inf,[7]; single dose 240 mg (n = 10),25 h
same,half-life,[7]; single dose 240 mg (n = 10),22.9 h
same,AUC(0-inf),[7]; single dose 300 mg (n = 3),17100 ng·h/mL
same,Cmax,[7]; single dose 300 mg (n = 3),905 ng/mL
same,MRT inf,[7]; single dose 300 mg (n = 3),32.4 h
same,half-life,[7]; single dose 300 mg (n = 3),27.5 h
same,Cssmax,[7]; multiple dosing 30 mg (n = 3),95.13 (54.02) ng/mL
same,Cssmin,[7]; multiple dosing 30 mg (n = 3),25.00 (8.04) ng/mL
same,Racc_AUC,[7]; multiple dosing 30 mg (n = 3),116.256 (32.91) %
same,Racc_Cmax,[7]; multiple dosing 30 mg (n = 3),89.141 (35.00) %
same,Cssmax,[7]; multiple dosing 60 mg (n = 3),419.00 (128.24) ng/mL
same,Cssmin,[7]; multiple dosing 60 mg (n = 3),117.87 (59.10) ng/mL
same,Racc_AUC,[7]; multiple dosing 60 mg (n = 3),203.993 (32.03) %
same,Racc_Cmax,[7]; multiple dosing 60 mg (n = 3),150.689 (39.79) %
same,Cssmax,[7]; multiple dosing 90 mg (n = 8),324.38 (109.58) ng/mL
same,Cssmin,[7]; multiple dosing 90 mg (n = 8),103.65 (29.27) ng/mL
same,Racc_AUC,[7]; multiple dosing 90 mg (n = 8),149.978 (88.53) %
same,Racc_Cmax,[7]; multiple dosing 90 mg (n = 8),117.082 (97.12) %
same,Cssmax,[7]; [9],479.20 (151.70) ng/mL
same,Cssmin,[7]; [9],139.24 (34.22) ng/mL
same,Racc_AUC,[7]; [9],130.809 (36.42) %
same,Racc_Cmax,[7]; [9],111.519 (44.39) %
same,Cssmax,[7]; [10],529.38 (203.22) ng/mL
same,Cssmin,[7]; [10],164.10 (77.76) ng/mL
same,Racc_AUC,[7]; [10],174.265 (35.49) %
same,Racc_Cmax,[7]; [10],138.238 (26.54) %
same,Cssmax,[7]; [11],960.50 (234.47) ng/mL
same,Cssmin,[7]; [11],236.00 (56.80) ng/mL
same,Racc_AUC,[7]; [11],160.210 (77.95) %
same,Racc_Cmax,[7]; [11],127.749 (58.74) %
same,Cssmax,[7]; multiple dosing 300 mg (n = 2),1685.00 (657.61) ng/mL
same,Cssmin,[7]; multiple dosing 300 mg (n = 2),623.50 (402.34) ng/mL
same,Racc_AUC,[7]; multiple dosing 300 mg (n = 2),309.507 (151.00) %
same,Racc_Cmax,[7]; multiple dosing 300 mg (n = 2),223.005 (88.95) %
same,dose proportionality of exposure,"[7]; once-daily 30 to 300 mg, AUC0–24",increased in an approximately dose-proportion manner
same,mutagenic activity,Mutagenicity study,no mutagenic activity
same,MTD,in vivo [8],200 mg/kg
